pIC50: −log10 of the molar value. Where only a bound is given, the exact number is not on record here.

The subject of this experiment is YAP-TEAD. The experiment in a line: TEAD inhibition, Hippo Pathway TEAD Reporter MCF-7 luciferase assay. The format is cell-based. The conditions noted are these: Homo sapiens, MCF7, 24 h, Hippo Pathway TEAD Reporter MCF-7 cells, luciferase activity after 24 h; read-out: IC50 of the test compounds on YAP-TEAD inhibition (Group). The method in brief:
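MCF-7 cells carrying a TEAD-responsive firefly luciferase reporter, with nuclear YAP1 driving constitutive expression, were treated the day after plating with compounds (11 concentrations, 4 replicates; 0.1% DMSO control). After 24 h, luciferase was read by ONE-Glo luminescence and IC50 determined.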
As for `COc1ccc(Oc2ccc(OC(F)(F)F)cc2)cc1NC(=O)[C@H]1CCC(=O)N1C` [Compound 290, (R)—N-(2-methoxy-5-(4-(trifluoromethoxy)phenoxy)phenyl)-1-methyl-5-oxopyrrolidine-2-carboxamide], the pIC50 (usually −log10 of the IC50, conventionally taken in molar units) was > 7.30. Turning to `COc1ccc(Oc2cccc(OC(F)(F)F)c2)cc1NC(=O)C1CCC(=O)N1C` (stereo not shown) [Compound 291, N-(2-methoxy-5-(3-(trifluoromethoxy)phenoxy)phenyl)-1-methyl-5-oxo-pyrrolidine-2-carboxamide], the pIC50 is 6.52 to 7.30. `COc1ccc(Oc2ccc(C(F)F)cc2)cc1NC(=O)C1CCC(=O)N1C` (stereo not shown) [Compound 292, N-(5-(4-(Difluoromethyl)phenoxy)-2-methoxyphenyl)-1-methyl-5-oxo-pyrrolidine-2-carboxamide]: the pIC50 was > 7.30.

As to `COc1cc(Oc2ccc(OC)c(NC(=O)[C@H]3CCC(=O)N3C)c2)ccc1F` [Compound 293, (R)—N-(5-(4-Fluoro-3-methoxyphenoxy)-2-methoxyphenyl)-1-methyl-5-oxo-pyrrolidine-2-carboxamide], the pIC50 is 6.52 to 7.30. As to `COc1ccc(OCC2CCCCC2)cc1NC(=O)C1CCC(=O)N1C` (stereo not shown) [Compound 294, N-(5-(Cyclohexylmethoxy)-2-methoxyphenyl)-1-methyl-5-oxopyrrolidine-2-carboxamide], the pIC50 was > 7.30. The same measure for `COc1ccc(Oc2ccc(OC)c(NC(=O)C3CCC(=O)N3C)c2)cc1F` (stereo not shown) [Compound 295, N-(5-(3-Fluoro-4-methoxyphenoxy)-2-methoxyphenyl)-1-methyl-5-oxo-pyrrolidine-2-carboxamide]: 6.52 to 7.30; for `COc1ccc(OC2CCC(C)(C)CC2)cc1NC(=O)C1CCC(=O)N1C` (stereo not shown) [Compound 296, N-(5-((4,4-Dimethylcyclohexyl)oxy)-2-methoxyphenyl)-1-methyl-5-oxo-pyrrolidine-2-carboxamide]: > 7.30. As to `COc1ccc(Sc2ccc(F)c(F)c2)cc1NC(=O)C1CCC(=O)N1C` (stereo not shown) [Compound 297, N-(5-((3,4-Difluorophenyl)thio)-2-methoxyphenyl)-1-methyl-5-oxopyrrolidine-2-carboxamide], the pIC50 was > 7.30.

On to `COc1ccc(Sc2ccc(F)c(F)c2)cc1NC(=O)C1CCC(=O)N1` (stereo not shown) [Compound 298, N-(5-((3,4-Difluorophenyl)thio)-2-methoxyphenyl)-5-oxopyrrolidine-2-carboxamide], for which the pIC50 is > 7.30. Regarding `COc1ccc(Oc2cccc(Br)c2)cc1NC(=O)C1CCC(=O)N1C` (stereo not shown) [Compound 299, N-(5-(3-Bromophenoxy)-2-methoxyphenyl)-1-methyl-5-oxopyrrolidine-2-carboxamide], the pIC50 was > 7.30. The same measure for `COc1ccc(Oc2ccc(OC(F)(F)F)cc2)cc1NC(=O)C1CCC(=O)N1` (stereo not shown) [Compound 300, N-(2-Methoxy-5-(4-(trifluoromethoxy)phenoxy)phenyl)-5-oxopyrrolidine-2-carboxamide]: > 7.30; for `COc1ccc(Oc2ccc(OC(C)C)cc2)cc1NC(=O)C1CCC(=O)N1` (stereo not shown) [Compound 301, N-(5-(4-Isopropoxyphenoxy)-2-methoxyphenyl)-5-oxopyrrolidine-2-carboxamide]: 5.70 to 6.52; for `COc1ccc(OCC2CC(F)(F)C2)cc1NC(=O)C1CCC(=O)N1C` (stereo not shown) [Compound 302, N-(5-((3,3-Difluorocyclobutyl)methoxy)-2-methoxyphenyl)-1-methyl-5-oxopyrrolidine-2-carboxamide]: 5.70 to 6.52. For the compound `CN1C(=O)CCC1C(=O)Nc1cc(Oc2ccc(F)cc2)cc(C(F)(F)F)c1` (stereo not shown) [Compound 303, N-(3-(4-Fluorophenoxy)-5-(trifluoromethyl)phenyl)-1-methyl-5-oxopyrrolidine-2-carboxamide], the pIC50 was 5.70 to 6.52. `COc1ccc(Oc2ccc(Cl)cc2)cc1NC(=O)C1CCC(=O)N1C` (stereo not shown) [Compound 304, N-(5-(4-Chlorophenoxy)-2-methoxyphenyl)-1-methyl-5-oxopyrrolidine-2-carboxamide]: the pIC50 is > 7.30. Regarding `COc1ccc(Oc2ccc(Cl)c(F)c2)cc1NC(=O)C1CCC(=O)N1C` (stereo not shown) [Compound 305, N-(5-(4-Chloro-3-fluorophenoxy)-2-methoxyphenyl)-1-methyl-5-oxopyrrolidine-2-carboxamide], the pIC50 is > 7.30.

For the compound `CN1C(=O)CCC1C(=O)Nc1cc(C#N)cc(Oc2ccc(C(F)(F)F)cc2)c1` (stereo not shown) [Compound 306, N-(3-Cyano-5-(4-(trifluoromethyl)phenoxy)phenyl)-1-methyl-5-oxopyrrolidine-2-carboxamide], the pIC50 was 5.70 to 6.52. With `COc1ccc(Oc2ccc(Cl)cc2)cc1NC(=O)[C@@H]1CCC(=O)N1C` [Compound 307, (S)—N-(5-(4-Chlorophenoxy)-2-methoxyphenyl)-1-methyl-5-oxopyrrolidine-2-carboxamide], the pIC50 was > 7.30. Regarding `COc1ccc(Oc2ccc(Cl)cc2)cc1NC(=O)[C@H]1CCC(=O)N1C` [Compound 308, (R)—N-(5-(4-Chlorophenoxy)-2-methoxyphenyl)-1-methyl-5-oxopyrrolidine-2-carboxamide], the pIC50 is > 7.30.

With `COc1ccc(Oc2ccc(C#N)c(Cl)c2)cc1NC(=O)C1CCC(=O)N1C` (stereo not shown) [Compound 309, N-(5-(3-Chloro-4-cyanophenoxy)-2-methoxyphenyl)-1-methyl-5-oxopyrrolidine-2-carboxamide], the pIC50 was 6.52 to 7.30. For the compound `COc1ccc(Oc2ccc(C#N)c(Cl)c2)cc1NC(=O)[C@@H]1CCC(=O)N1C` [Compound 310, (S)—N-(5-(3-Chloro-4-cyanophenoxy)-2-methoxyphenyl)-1-methyl-5-oxo-pyrrolidine-2-carboxamide], the pIC50 is 6.52 to 7.30. For `COc1ccc(Oc2ccc(C(F)(F)F)cc2)cc1NC(=O)[C@@H]1CCCN1S(C)(=O)=O` [Compound 311, (S)—N-(2-Methoxy-5-(4-(trifluoromethyl)phenoxy)phenyl)-1-(methylsulfonyl)-pyrrolidine-2-carboxamide], the pIC50 was 5.70 to 6.52.

With `COc1ccc(Oc2ccc(Cl)c(F)c2)cc1NC(=O)[C@@H]1CCC(=O)N1C` [Compound 312, (S)—N-(5-(4-Chloro-3-fluorophenoxy)-2-methoxyphenyl)-1-methyl-5-oxo-pyrrolidine-2-carboxamide], the pIC50 was > 7.30. For `COc1ccc(Oc2ccc(C(F)F)cc2)cc1NC(=O)[C@@H]1CCC(=O)N1C` [Compound 313, (S)—N-(5-(4-(Difluoromethyl)phenoxy)-2-methoxyphenyl)-1-methyl-5-oxo-pyrrolidine-2-carboxamide], the negative-log IC50 (pIC50) was > 7.30. As for `COc1ccc(Oc2ccc3c(c2)CCO3)cc1NC(=O)C1CCC(=O)N1C` (stereo not shown) [Compound 315, N-(5-((2,3-Dihydrobenzofuran-5-yl)oxy)-2-methoxyphenyl)-1-methyl-5-oxopyrrolidine-2-carboxamide], the pIC50 was 6.52 to 7.30. The same measure for `COc1ccc(Oc2cccc(Cl)c2)cc1NC(=O)C1CCC(=O)N1C` (stereo not shown) [Compound 316, N-(5-(3-Chlorophenoxy)-2-methoxyphenyl)-1-methyl-5-oxopyrrolidine-2-carboxamide]: > 7.30; for `COCCN1C(=O)CCC1C(=O)Nc1cc(Oc2ccc(C(F)(F)F)cc2)ccc1OC` (stereo not shown) [Compound 318, N-(2-Methoxy-5-(4-(trifluoromethyl)phenoxy)phenyl)-1-(2-methoxyethyl)-5-oxopyrrolidine-2-carboxamide]: > 7.30; for `COc1ccc(Oc2ccc(C(F)F)cc2)cc1NC(=O)[C@H]1CCC(=O)N1C` [Compound 319, (R)—N-(5-(4-(Difluoromethyl)phenoxy)-2-methoxyphenyl)-1-methyl-5-oxo-pyrrolidine-2-carboxamide]: > 7.30. In the case of `COc1ccc(Oc2ccc(C(F)(F)F)cc2)cc1NC(=O)C1CCCC(=O)N1C` (stereo not shown) [Compound 320, N-(2-Methoxy-5-(4-(trifluoromethyl)phenoxy)phenyl)-1-methyl-6-oxo-piperidine-2-carboxamide], the pIC50 is > 7.30.

For `COc1ccc(Oc2ccc(F)c(F)c2)cc1NC(=O)C1CCCC(=O)N1C` (stereo not shown) [Compound 321, N-(5-(3,4-Difluorophenoxy)-2-methoxyphenyl)-1-methyl-6-oxopiperidine-2-carboxamide], the pIC50 was 6.52 to 7.30. Consider `COc1ccc(Oc2ccc(C(F)(F)F)cc2)cc1NC(=O)C1CCNC(=O)C1` (stereo not shown) [Compound 322, N-(2-Methoxy-5-(4-(trifluoromethyl)phenoxy)phenyl)-2-oxopiperidine-4-carboxamide], for which the pIC50 was > 7.30. The same measure for `COc1ccc(Oc2ccc(C(F)(F)F)cc2)cc1NC(=O)C1CCN(C)C(=O)C1` (stereo not shown) [Compound 323, N-(2-Methoxy-5-(4-(trifluoromethyl)phenoxy)phenyl)-1-methyl-2-oxo-piperidine-4-carboxamide]: 5.70 to 6.52; for `COc1ccc(Oc2ccc(C(F)(F)F)cc2)cc1NC(=O)C1CCN(S(C)(=O)=O)C1` (stereo not shown) [Compound 326, N-(2-Methoxy-5-(4-(trifluoromethyl)phenoxy)phenyl)-1-(methylsulfonyl)-pyrrolidine-3-carboxamide]: 5.70 to 6.52. Take `COc1ccc(Oc2cc(C(F)(F)F)ccn2)cc1NC(=O)C1CCNC(=O)C1` (stereo not shown) [Compound 327, N-(2-methoxy-5-((4-(trifluoromethyl)pyridin-2-yl)oxy)phenyl)-2-oxopiperidine-4-carboxamide]: the pIC50 is 5.70 to 6.52. On to `CN1C(=O)CCC1C(=O)Nc1cc(Oc2ccc(OC(F)(F)F)cc2)ccc1F` (stereo not shown) [Compound 328, N-(2-Fluoro-5-(4-(trifluoromethoxy)phenoxy)phenyl)-1-methyl-S-oxopyrrolidine-2-carboxamide], for which the pIC50 was 6.52 to 7.30. In the case of `CN1C(=O)CCC1C(=O)Nc1cc(Oc2ccc(OC(F)(F)F)cc2)ccc1Cl` (stereo not shown) [Compound 329, N-(2-Chloro-5-(4-(trifluoromethoxy)phenoxy)phenyl)-1-methyl-5-oxo-pyrrolidine-2-carboxamide], the pIC50 was 5.70 to 6.52. Consider `CN1C(=O)CCC1C(=O)Nc1cc(Oc2ccc(C(F)(F)F)cc2)ccc1C(N)=O` (stereo not shown) [Compound 330, N-(2-Carbamoyl-5-(4-(trifluoromethyl)phenoxy)phenyl)-1-methyl-5-oxopyrrolidine-2-carboxamide], for which the pIC50 was 5.70 to 6.52.

The record behind these values is patent US20240246908A1 (ORION CORPORATION, priority 2021, published 2024).
